In ChEMBL document CHEMBL1201862, “PubChem BioAssay data set” (2004):
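Values below derive from 48-hour exposures of cells grown in 96-well plates, with endpoints linearly interpolated between the two concentrations bracketing the appropriate inhibition level. GI50: concentration for 50% inhibition of growth.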 Activity calls are given as the source filed them. Rule as the data show it: active = GI50 up to about 1.1 µM and inactive = higher.

Tests used:
Assay in all cases: NCI tumour cell line growth inhibition, 48 h
TK-10 = tested on: TK-10
NCI-H23 = tested on: NCI-H23
KM12 = tested on: KM12
SF-295 = tested on: SF-295
LOX IMVI = tested on: LOX IMVI
K562 = tested on: K562
MOLT-4 = tested on: MOLT-4
PC-3 = tested on: PC-3
HCT-116 = tested on: HCT-116
NCI-H460 = tested on: NCI-H460
HT-29 = tested on: HT-29
CCRF-CEM = tested on: CCRF-CEM
T47D = tested on: T47D
M14 = tested on: M14
SF-268 = tested on: SF-268
CAKI-1 = tested on: CAKI-1
SNB-19 = tested on: SNB-19
UO-31 = tested on: UO-31
HCC 2998 = tested on: HCC 2998
SR = tested on: SR

Measured: GI50

COC(=O)C1=C(O)C(C(=O)OC)[C@]2(O)[C@@H](C(=O)OC)[C@H]1[C@H](C)[C@@H](c1ccccc1)[C@@H]2C(=O)OC (some centres undefined)
inactive: TK-10 > 100 µM | NCI-H23 44.4 µM | KM12 > 100 µM | SF-295 78.2 µM | LOX IMVI 53.7 µM | K562 57.4 µM | MOLT-4 85.9 µM | PC-3 61.5 µM | HCT-116 60.3 µM | NCI-H460 69.2 µM | HT-29 > 100 µM | CCRF-CEM 23.2 µM | T47D > 100 µM | M14 88.1 µM | SF-268 70.8 µM | CAKI-1 > 100 µM | SNB-19 > 100 µM

CCCCCCCCCCCNC=O
inactive: UO-31 33.8 µM | TK-10 37.7 µM | NCI-H23 44.5 µM | KM12 45.3 µM | SF-295 36.9 µM | LOX IMVI 51.9 µM | K562 23.7 µM | MOLT-4 22.6 µM | PC-3 23.9 µM | HCT-116 33.6 µM | NCI-H460 53.7 µM | HCC 2998 24.4 µM | HT-29 37.3 µM | CCRF-CEM 26.5 µM | T47D 39.2 µM | M14 63 µM | SF-268 49.1 µM | CAKI-1 33.3 µM | SNB-19 > 100 µM

COc1ccc(N[S+]([O-])c2ccc(OC)cc2)cc1 (centres undefined)
inactive: UO-31 12.5 µM | TK-10 > 100 µM | NCI-H23 > 100 µM | SR 26.9 µM | KM12 7.8 µM | SF-295 24 µM | LOX IMVI 17.4 µM | K562 26.1 µM | MOLT-4 35.4 µM | HCT-116 41.2 µM | NCI-H460 29 µM | HCC 2998 41.3 µM | HT-29 39.9 µM | CCRF-CEM 45.5 µM | T47D 15.5 µM | M14 > 100 µM | SF-268 6.75 µM | CAKI-1 52.7 µM | SNB-19 60.1 µM

O=C1c2ccccc2-c2nc(-c3cccnc3)cc3c2c1nc1ccccc13
inactive: UO-31 > 100 µM | TK-10 > 100 µM | NCI-H23 88.3 µM | SR 11.9 µM | KM12 > 10 µM | SF-295 58.3 µM | LOX IMVI 40.3 µM | K562 > 100 µM | MOLT-4 23.6 µM | PC-3 > 100 µM | HCT-116 > 100 µM | NCI-H460 22.8 µM | HCC 2998 > 100 µM | HT-29 > 100 µM | CCRF-CEM 26.5 µM | M14 14.3 µM | SF-268 > 100 µM | CAKI-1 > 100 µM | SNB-19 > 100 µM

O=c1c2cc(Br)ccc2oc2ccc(Br)cc12
inactive: UO-31 > 100 µM | TK-10 > 100 µM | NCI-H23 > 100 µM | KM12 > 100 µM | SF-295 > 100 µM | K562 > 100 µM | MOLT-4 > 100 µM | PC-3 > 100 µM | HCT-116 82.2 µM | NCI-H460 > 100 µM | HCC 2998 > 100 µM | HT-29 > 100 µM | CCRF-CEM > 100 µM | T47D 81.3 µM | M14 > 100 µM | SF-268 > 100 µM | CAKI-1 > 100 µM | SNB-19 > 100 µM

Cc1cc(Nc2ccc(NS(C)(=O)=O)cc2)c2c(ccc3[nH]ccc32)n1
inactive: UO-31 > 100 µM | TK-10 28.6 µM | NCI-H23 20.7 µM | KM12 10.8 µM | SF-295 22.3 µM | LOX IMVI 18.5 µM | K562 13.6 µM | MOLT-4 2.77 µM | PC-3 20.4 µM | HCT-116 17.2 µM | NCI-H460 19.3 µM | HT-29 27.5 µM | CCRF-CEM 7.87 µM | T47D 3.5 µM | M14 16.6 µM | SF-268 7.24 µM | CAKI-1 29.5 µM | SNB-19 18.1 µM

Cc1cccc2c1c(=O)c1c(O)cc3c(c1n2C)C=CC(C)(C)O3
inactive: TK-10 64.9 µM | NCI-H23 > 100 µM | SR > 100 µM | KM12 70.3 µM | SF-295 > 100 µM | LOX IMVI > 100 µM | K562 18.1 µM | MOLT-4 > 100 µM | PC-3 > 100 µM | HCT-116 > 100 µM | NCI-H460 > 100 µM | HCC 2998 > 100 µM | HT-29 9.1 µM | CCRF-CEM > 100 µM | M14 > 100 µM | SF-268 > 100 µM | CAKI-1 > 100 µM | SNB-19 > 100 µM

O=c1ccc2ccc(O)cc2o1 [UMBELLIFERONE]
inactive: UO-31 > 100 µM | TK-10 > 100 µM | NCI-H23 > 100 µM | KM12 > 100 µM | SF-295 > 100 µM | LOX IMVI > 100 µM | MOLT-4 > 100 µM | PC-3 > 100 µM | HCT-116 > 100 µM | HCC 2998 88.7 µM | HT-29 > 100 µM | CCRF-CEM > 100 µM | T47D > 100 µM | M14 > 100 µM | SF-268 > 100 µM | CAKI-1 > 100 µM | SNB-19 > 100 µM

O=C1NC2(CCN(CCCC3(c4ccc(F)cc4)OCCO3)CC2)Oc2ccccc21
inactive: UO-31 12.7 µM | TK-10 > 100 µM | NCI-H23 > 100 µM | SR 39.7 µM | KM12 > 100 µM | SF-295 > 100 µM | LOX IMVI > 100 µM | K562 64.4 µM | MOLT-4 51.8 µM | HCT-116 > 100 µM | NCI-H460 91.2 µM | HCC 2998 > 100 µM | HT-29 42.4 µM | CCRF-CEM > 100 µM | T47D 35.8 µM | M14 73.5 µM | SF-268 > 100 µM | SNB-19 > 100 µM

NS(=O)(=O)c1ccc(NS(=O)(=O)c2ccc(NC(=O)N(c3ccccc3)c3ccccc3)cc2)cc1
inactive: UO-31 > 100 µM | TK-10 50.4 µM | NCI-H23 > 100 µM | KM12 60.5 µM | SF-295 35.7 µM | LOX IMVI 34.4 µM | K562 26.1 µM | MOLT-4 34 µM | PC-3 51.1 µM | HCT-116 82.4 µM | NCI-H460 65.6 µM | HT-29 57.1 µM | CCRF-CEM 2.7 µM | T47D 48 µM | M14 41.3 µM | SF-268 64.1 µM | CAKI-1 67 µM | SNB-19 > 100 µM

O=C(NCCCN(CCCCN(CCCNC(=O)C(F)(F)F)CCCc1ccccc1)CCCc1ccccc1)C(F)(F)F
inactive: UO-31 1.26 µM | TK-10 1.91 µM | NCI-H23 12.7 µM | KM12 1.95 µM | SF-295 1.81 µM | LOX IMVI 1.85 µM | K562 2.87 µM | MOLT-4 1.8 µM | HCT-116 2.47 µM | NCI-H460 1.87 µM | HCC 2998 1.78 µM | HT-29 1.55 µM | CCRF-CEM 4.63 µM | T47D 1.85 µM | M14 1.76 µM | SF-268 1.63 µM | CAKI-1 1.94 µM | SNB-19 2 µM
